Like-named read-outs stand apart in the source and are kept apart here.
Experiments:
Type in all cases: cell-based
HEK293 cells = assay: Anti-proliferation activity of unconjugated compounds in HEK293; settings: Homo sapiens
Protocol: (§1) Cells were seeded in PDL-coated 96 well plates at 375 (MMT/hEGFRvIII), 1500 (U251/hEGFRvIII), 2000 (HEK293/hEGFRvIII), or 3000 (C4-2, PC3/hSTEAP1, T47D, and U87-MG) cells per well in complete growth media and grown overnight. For cell viability curves, serially diluted conjugates or free representative payloads were added to the cells at final concentrations ranging from 500 nM to 1 pM and incubated for 3 days. To measure viability in MMT/hEGFRvIII, U251/hEGFRvIII, HEK293/hEGFRvIII, C4-2, PC3/hSTEAP1, and U87-MG, cells were incubated with CCK8 (Dojindo) for the final 1-3 hours and the absorbance at 450 nm (OD450) was determined on a Flexstation3 (Molecular Devices). To measure viability in T47D, cells were incubated on ice for 30 min in 4% formaldehye+3 ug/ml Hoechst. Images of Hoechst stained nuclei were acquired on the ImageXpress Micro XL (Molecular Devices) and nuclear counts were determined with the Columbus analysis software (PerkinElmer). Background OD450 levels (CCK8) or nuclear counts from digitonin ([…]) treated cells were subtracted from all wells and viability is expressed as a percentage of the untreated controls. IC50 values were determined from a four-parameter logistic equation over a 10-point response curve (GraphPad Prism). All curves and IC50 values are corrected for payload equivalents.
(§2) In a separate set of experiments, compound 6, along with amino analogs 27, 29, and 31 were assayed in HEK293 and U87MG for anti-proliferation activity (FIG. 7). […] (For these experiments, background correction with digitonin was not performed).
(§3) In yet another set of experiments, compounds 6, 9, 33, and 35 were assayed in HEK293, U251, C4-2, PC3, and MMT for anti-proliferation activity (FIG. 8). The trend in potency follows 9>33>35>6 and is consistent for the 5 cell lines assayed.

[1] = tested on: C4-2 cells (prostate cancer line); assay: In vitro cytotoxicity (cell viability, CCK8) in C4-2 cells; settings: C4-2, unconjugated (Table 2, FIG. 8)
Protocol: as §1

U87MG cells = assay: Anti-proliferation activity of unconjugated compounds in U87MG; settings: Homo sapiens, U-87 MG, background correction with digitonin not performed (FIG. 7)
Protocol: as §1, §2

U251 cells = assay: Anti-proliferation activity of unconjugated compounds in U251; settings: Homo sapiens, U-251; U251, unconjugated (Table 2, FIG. 8)
Protocol: as §1, §3

PC3 cells = assay: Anti-proliferation activity of unconjugated compounds in PC3; settings: Homo sapiens, PC-3; PC3, unconjugated (Table 2, FIG. 8)
Protocol: as §1, §3

MMT cells = assay: Anti-proliferation activity of unconjugated compounds in MMT; settings: unconjugated (Table 2, FIG. 8)
Protocol: as §1, §3

[2] = HEK293, unconjugated (Table 2, FIG. 8), read-out: IC50 (nM) HEK293
[3] = HEK293, unconjugated, background correction with digitonin not performed (FIG. 7), read-out: IC50

SMILES: CNCCC(=O)N(C)[C@@H](C)C(=O)O[C@H]1CC(=O)N(C)c2cc(cc(OC)c2Cl)C/C(C)=C/C=C/[C@@H](OC)[C@@]2(O)C[C@H](OC(=O)N2)[C@@H](C)[C@@H]2O[C@@]12C [Compound 6]
- IC50 (HEK293 cells; [2]): 200 nM
- IC50 (HEK293 cells; [3]): > 30 nM
- IC50 [1]: 200 nM
- IC50 (U87MG cells): > 30 nM
- IC50 (U251 cells): 150 nM
- IC50 (PC3 cells): 250 nM
- IC50 (MMT cells): 250 nM

SMILES: COc1cc2cc(c1Cl)N(C)C(=O)C[C@H](OC(=O)[C@H](C)N(C)C(=O)CCCN)[C@]1(C)O[C@H]1[C@H](C)[C@@H]1C[C@@](O)(NC(=O)O1)[C@H](OC)/C=C/C=C(\C)C2 [Compound 29, Maytansin-3-N-methyl-L-(S)-alanine-γ-aminobutyramide]
- IC50 (HEK293 cells; [3]): > 30 nM
- IC50 (U87MG cells): > 30 nM

SMILES: COc1cc2cc(c1Cl)N(C)C(=O)C[C@H](OC(=O)[C@H](C)N(C)C(=O)CCN)[C@]1(C)O[C@H]1[C@H](C)[C@@H]1C[C@@](O)(NC(=O)O1)[C@H](OC)/C=C/C=C(\C)C2 [Compound 27, Maytansin-3-N-methyl-L-(S)-alanine-β-alanine]
- IC50 (HEK293 cells; [3]): > 30 nM
- IC50 (U87MG cells): > 30 nM

SMILES: COc1cc2cc(c1Cl)N(C)C(=O)C[C@H](OC(=O)[C@H](C)N(C)C(=O)CCSSC)[C@]1(C)O[C@H]1[C@H](C)[C@@H]1C[C@@](O)(NC(=O)O1)[C@H](OC)/C=C/C=C(\C)C2 [Compound 9, Maytansin-3-N-methyl-L-(S)-alanine-propanamidyl-3-methyldisulfide]
- IC50 (HEK293 cells; [2]): 0.2 nM
- IC50 [1]: 1.5 nM
- IC50 (U251 cells): 0.4 nM
- IC50 (PC3 cells): 0.4 nM
- IC50 (MMT cells): 0.3 nM

SMILES: COc1cc2cc(c1Cl)N(C)C(=O)C[C@H](OC(=O)[C@H](C)N(C)C(=O)C1CCNCC1)[C@]1(C)O[C@H]1[C@H](C)[C@@H]1C[C@@](O)(NC(=O)O1)[C@H](OC)/C=C/C=C(\C)C2 [Compound 35, Maytansin-3-N-methyl-L-(S)-alanine-N-carboxy-4-piperidine]
- IC50 (HEK293 cells; [2]): 50 nM
- IC50 [1]: 55 nM
- IC50 (U251 cells): 25 nM
- IC50 (PC3 cells): 65 nM
- IC50 (MMT cells): 60 nM

SMILES: CNCCCC(=O)N(C)[C@@H](C)C(=O)O[C@H]1CC(=O)N(C)c2cc(cc(OC)c2Cl)C/C(C)=C/C=C/[C@@H](OC)[C@@]2(O)C[C@H](OC(=O)N2)[C@@H](C)[C@@H]2O[C@@]12C [Compound 31, Maytansin-3-N-methyl-L-(8)-alanine-N-Me-γ-aminobutyramide]
- IC50 (HEK293 cells; [3]): > 30 nM
- IC50 (U87MG cells): > 30 nM

SMILES: COc1cc2cc(c1Cl)N(C)C(=O)C[C@H](OC(=O)[C@H](C)N(C)C(=O)c1ccc3c(c1)CCNC3)[C@]1(C)O[C@H]1[C@H](C)[C@@H]1C[C@@](O)(NC(=O)O1)[C@H](OC)/C=C/C=C(\C)C2 [Compound 33, Maytansin-3-N-methyl-L-N-alanine-N-carboxy-6-(1,2,3,4-tetrahydroisoquinoline)]
- IC50 (HEK293 cells; [2]): 20 nM
- IC50 [1]: 20 nM
- IC50 (U251 cells): 15 nM
- IC50 (PC3 cells): 30 nM
- IC50 (MMT cells): 20 nM

Reference: US10570151B2, “Biologically active molecules, conjugates thereof, and therapeutic uses” (priority 2013, dated 2020)
